Experimental data from US6369225B1, “Compounds having activity as inhibitors of cytochrome P450RAI” (Allergan Sales, Inc., priority 2000, dated 2002).

Columns and labels:
P450RAI-1 = target: T1, P450RAI-1 (Homo sapiens, UniProt O43174); assay: P450RAI-1 cell-based inhibitor assay; settings: P450RAI-1 stably transfected HeLa cells, [3H]-RA metabolism, 3 hours at 37° C.; read-out: P450RAI INHIBITION DATA INTACT HELA IC50
T1 construct: expressed in transfected cells; host or cells: HeLa cells, stably transfected, hygromycin selection
T1 sequence (O43174 1-497): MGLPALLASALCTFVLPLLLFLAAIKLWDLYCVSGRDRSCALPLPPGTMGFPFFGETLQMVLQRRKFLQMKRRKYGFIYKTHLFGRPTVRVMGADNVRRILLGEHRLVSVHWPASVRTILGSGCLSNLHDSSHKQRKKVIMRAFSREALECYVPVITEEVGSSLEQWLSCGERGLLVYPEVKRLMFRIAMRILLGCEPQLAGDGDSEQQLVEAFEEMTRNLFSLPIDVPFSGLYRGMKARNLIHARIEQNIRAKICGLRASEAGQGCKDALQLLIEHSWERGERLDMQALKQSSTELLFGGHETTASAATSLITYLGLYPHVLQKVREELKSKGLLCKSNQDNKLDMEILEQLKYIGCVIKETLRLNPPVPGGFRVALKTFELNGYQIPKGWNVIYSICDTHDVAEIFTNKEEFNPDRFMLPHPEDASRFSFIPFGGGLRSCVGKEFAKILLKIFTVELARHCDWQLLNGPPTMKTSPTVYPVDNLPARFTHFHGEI
In short: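 HeLa cells stably expressing the enzyme (5×10^5/well) incubated 3 h at 37 °C with 0.05 μCi [3H]-all-trans-RA and compound at 10, 1 or 0.1 μM in triplicate. Water-soluble radioactive metabolites counted by scintillation; IC50 derived manually from log-transformed data.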

RARα = target: T2, RARα (Homo sapiens, UniProt P10276); assay: chimeric receptor transactivation assay, RARα; assay type: cell-based; settings: EC50 line of EC50/(EFFICACY)/Kd, read-out: RAR EC50 α
T2 sequence (P10276 183-462 limits assumed): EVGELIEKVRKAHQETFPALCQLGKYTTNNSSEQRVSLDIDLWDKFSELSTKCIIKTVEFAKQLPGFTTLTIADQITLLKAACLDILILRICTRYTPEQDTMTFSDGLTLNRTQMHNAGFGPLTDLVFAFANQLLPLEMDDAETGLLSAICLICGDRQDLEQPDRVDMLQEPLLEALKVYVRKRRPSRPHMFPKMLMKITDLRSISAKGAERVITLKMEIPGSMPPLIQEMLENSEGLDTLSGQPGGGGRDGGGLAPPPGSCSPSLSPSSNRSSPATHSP
Source text: (§1) Assays described below measure the ability of a compound to bind to, and/or activate various retinoid receptor subtypes. When in these assays a compound binds to a given receptor subtype and activates the transcription of a reporter gene through that subtype, then the compound is considered an agonist of that receptor subtype. […] In the below described assays the ability of the compounds to bind to RARα, RARβ, RARγ, RXRα, RXRβ and RXRγ receptors, and the ability or inability of the compounds to activate transcription of a reporter gene through these receptor subtypes can be tested.
(§2) As far as specific assays are concerned, a chimeric receptor transactivation assay which tests for agonist-like activity in the RARα, RARβ, AND RARγ, receptor subtypes, and which is based on work published by Feigner P. L. and Holm M. (1989) Focus, 112 is described in detail in U.S. Pat. No. 5,455,265. The specification of U.S. Pat. No. 5,455,265 is hereby expressly incorporated by reference. The numeric results obtained with several preferred compounds of this invention in this assay are shown below in Table 1.

RARγ = target: T3, RARγ (Homo sapiens, UniProt P13631); assay: chimeric receptor transactivation assay, RARγ; assay type: cell-based; settings: EC50 line of EC50/(EFFICACY)/Kd, read-out: RAR EC50 γ
T3 sequence (P13631 185-419 limits assumed): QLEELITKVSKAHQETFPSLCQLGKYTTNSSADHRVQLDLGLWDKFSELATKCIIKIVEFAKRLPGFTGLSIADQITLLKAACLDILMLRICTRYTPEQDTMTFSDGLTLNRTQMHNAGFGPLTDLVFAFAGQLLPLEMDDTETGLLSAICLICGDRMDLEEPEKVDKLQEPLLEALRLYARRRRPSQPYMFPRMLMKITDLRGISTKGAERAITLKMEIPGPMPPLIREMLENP
Source text: as §1, §2

skin of hairless mice = assay: topical skin irritation test in hairless mice; assay type: in vivo, mouse; settings: topical in acetone, once daily days 1 through 5, mean ±SD, range 0-21
Source text: Mice were housed individually throughout the dosing period.
Doses are disclosed as nmol/25 g.
The grading scale used is as follows:
Values can range from 0-9.
Values can range from 0-8.

SMILES	IC50 (P450RAI-1)	EC50 (RARα)	EC50 (RARγ)	Cutaneous Toxicity Score (Blackjack Score) (skin of hairless mice; 100 nmole (nmol/25 g))	Cutaneous Toxicity Score (Blackjack Score) (skin of hairless mice; 1000 nmole (nmol/25 g))	Cutaneous Toxicity Score (Blackjack Score) (skin of hairless mice; 300 nmole (nmol/25 g))
CN(C1CC1)C1CCC(C)(C)c2cc(C#Cc3ccc(C(=O)O)cc3)ccc21 (centres unmarked) [Compound 3, 4-[(5-Cyclopropyl-methyl-amino)-8,8-dimethyl-5,6,7,8-tetrahydro-naphthalene-2yl-ethynyl]-benzoic Acid]	3000 nM	280 nM	9.8 nM	–	–	–
CC1(C)CCC(=O)c2ccc(C#Cc3ccc(CC(=O)O)cc3)cc21 [Compound 5, 4-[(8,8-Dimethyl-5-oxo-5,6,7,8-tetrahydro-naphthalene-2-yl-ethynyl)-phenyl]-acetic Acid]	550 nM	–	–	0	6 ± 3	–
CN(C1CC1)C1CCC(C)(C)c2cc(C#Cc3ccc(CC(=O)O)cc3)ccc21 (centres unmarked) [Compound 8, 4-[(5-(Cyclopropyl-methyl-amino)-8,8-dimethyl-5,6,7,8-tetrahydro-naphthalene-2-yl-ethynyl)-phenyl]-acetic Acid]	400 nM	–	–	5 ± 2	12 ± 1	8 ± 3
CC1(C)CC2(CC2)Oc2ccc(C#Cc3ccc(C(=O)O)cc3)cc21 [Compound 40, Benzoic Acid, 4-[(3,4-dihydro-4,4-dimethylspiro[2H-1-benzopyran-2,1′-cyclopropane]-6-yl)ethynyl]-]	1700 nM	33 nM	6.8 nM	–	–	–
CC1(C)CC2(CC2)Oc2ccc(C#Cc3ccc(C(=O)O)c(F)c3)cc21 [Compound 44, 2-Fluoro-benzoic Acid, 4-[(3,4-dihydro-4,4-dimethylspiro[2H-1-benzopyran-2,1′-cyclopropane]-6-yl)ethynyl]-]	270 nM	49 nM	7.5 nM	–	–	–
COC1(c2ccc(C#Cc3ccc(C(=O)O)cc3)cc2)CC1 [Compound 69, 4-[4-(1-Methoxycyclopropyl)-phenylethynyl]-benzoic Acid]	> 10000 nM	313 nM	52.6 nM	–	–	–
CC(C)OC1(c2ccc(C#Cc3ccc(C(=O)O)cc3)cc2)CC1 [Compound 73, 4-[4-(1-Isopropoxycyclopropyl)-phenylethynyl]-benzoic Acid]	> 10000 nM	–	91 nM	–	–	–
Cc1cc(C#Cc2ccc(C(=O)O)cc2)ccc1C1(OCc2ccccc2)CC1 [Compound 81, 4-[4-(1-Benzyloxycyclopropyl)-3-methyl-phenylethynyl]-benzoic Acid]	> 10000 nM	–	183 nM	–	–	–
Cc1cc(C#Cc2ccc(C(=O)O)cc2)ccc1C1(OC(C)C)CC1 [Compound 85, 4-[4-(1-Isopropoxycyclopropyl)-3-methyl-phenylethynyl]-benzoic Acid]	> 10000 nM	976 nM	2.5 nM	–	–	–
Cc1cc(C#Cc2ccc(C(=O)O)cc2)ccc1C1(OCC(C)(C)C)CC1 [Compound 89, 4-[4-[1-(2,2-Dimethylpropyloxy)-cyclopropyl]-3-methyl-phenylethynyl]-benzoic Acid]	> 10000 nM	268 nM	12 nM	–	–	–
CCc1cc(C#Cc2ccc(C(=O)O)cc2)ccc1C1(OCc2ccccc2)CC1 [Compound 93, 4-[4-(1-Benzyloxycyclopropyl)-3-ethyl-phenylethynyl]-benzoic Acid]	> 10000 nM	4820 nM	10 nM	–	–	–
CCCNC1(c2ccc(C#Cc3ccc(C(=O)O)cc3)cc2)CC1 [Compound 108, 4-[4-(1-Propylamino-cyclopropyl)-phenylethynyl]-benzoic Acid]	> 10000 nM	6.6 nM	141 nM	–	–	–
CCCN(CCC)C1(c2ccc(C#Cc3ccc(C(=O)O)cc3)cc2)CC1 [Compound 110, 4-[4-(1-Dipropylamino-cyclopropyl)-phenylethynyl]-benzoic Acid]	> 10000 nM	–	262 nM	–	–	–
O=C(O)c1ccc(C#Cc2ccc(C3(NCc4ccccc4)CC3)cc2)cc1 [Compound 112, 4-[4-(1-Benzylamino-cyclopropyl)-phenylethynyl]-benzoic Acid]	> 10000 nM	–	–	–	–	–
